ChEMBL document CHEMBL1201862, “PubChem BioAssay data set” (2004)
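Five compound concentrations were applied to cells in 96-well plates for 48 hours; endpoints were derived by simple linear interpolation of the resulting dose-response curve. GI50 is the concentration that inhibits growth by half.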 Active and inactive are the calls of the source. Rule as the data show it: active = GI50 up to about 1.1 µM and inactive = higher.

How the values were obtained:
Experiment in all cases: inhibition of tumour cell growth, NCI panel, 48 h
[1] = system: RPMI-8226
[2] = system: MDA-N
[3] = system: UACC-62
[4] = system: BT-549
[5] = system: K562
[6] = system: Malme-3M
[7] = system: NCI/ADR-RES
[8] = system: OVCAR-3
[9] = system: HCT-116
[10] = system: U-251
[11] = system: HOP-62
[12] = system: SK-MEL-5
[13] = system: DU-145
[14] = system: RXF 393
[15] = system: HOP-92
[16] = system: Hs-578T
[17] = system: MCF7
[18] = system: SF-539
[19] = system: SNB-75
[20] = system: SK-OV-3

SMILES	GI50 [1]	GI50 [2]	GI50 [3]	GI50 [4]	GI50 [5]	GI50 [6]	GI50 [7]	GI50 [8]	GI50 [9]	GI50 [10]	GI50 [11]	GI50 [12]	GI50 [13]	GI50 [14]	GI50 [15]	GI50 [16]	GI50 [17]	GI50 [18]	GI50 [19]	GI50 [20]
OC(Cc1ccccc1)(Cc1ccccc1)c1ccccc1	29.3 µM (inactive)	15.2 µM (inactive)	16.9 µM (inactive)	18.7 µM (inactive)	26.8 µM (inactive)	13.1 µM (inactive)	23 µM (inactive)	18.2 µM (inactive)	16.2 µM (inactive)	18.1 µM (inactive)	19.7 µM (inactive)	18 µM (inactive)	17.7 µM (inactive)	15.3 µM (inactive)	16.9 µM (inactive)	–	–	–	–	–
CC(=O)Oc1cc(OC(C)=O)c2c(C)cc(=O)oc2c1	> 100 µM (inactive)	> 100 µM (inactive)	> 100 µM (inactive)	–	> 100 µM (inactive)	> 100 µM (inactive)	> 100 µM (inactive)	> 100 µM (inactive)	> 100 µM (inactive)	> 100 µM (inactive)	> 100 µM (inactive)	> 100 µM (inactive)	> 100 µM (inactive)	–	–	> 100 µM (inactive)	76.2 µM (inactive)	36.1 µM (inactive)	66.8 µM (inactive)	> 100 µM (inactive)
CCOC(=O)/C=C(\C)Sc1cc(O)c2ccccc2c1O	24.8 µM (inactive)	–	31.1 µM (inactive)	22 µM (inactive)	5.51 µM (inactive)	9.66 µM (inactive)	25.3 µM (inactive)	28.6 µM (inactive)	6.47 µM (inactive)	20.3 µM (inactive)	20.2 µM (inactive)	12.6 µM (inactive)	9.02 µM (inactive)	14.9 µM (inactive)	21.2 µM (inactive)	58.9 µM (inactive)	13.9 µM (inactive)	21.5 µM (inactive)	10.1 µM (inactive)	34.4 µM (inactive)
COC(=O)C1=C(CCC[C@H](C)O[Si](C)(C)C(C)(C)C)NC(=O)N2[C@@H](CCO)CC[C@H]12	14.9 µM (inactive)	–	–	15 µM (inactive)	6.92 µM (inactive)	12.5 µM (inactive)	13.9 µM (inactive)	13.3 µM (inactive)	4.18 µM (inactive)	15.5 µM (inactive)	14.1 µM (inactive)	7.82 µM (inactive)	19.1 µM (inactive)	12.4 µM (inactive)	14.2 µM (inactive)	–	–	16.7 µM (inactive)	15.7 µM (inactive)	15.8 µM (inactive)
CN(C)C(=O)OC(Cn1cncn1)c1ccc(Cl)cc1Cl (stereo unspecified)	> 100 µM (inactive)	–	> 100 µM (inactive)	–	> 100 µM (inactive)	> 100 µM (inactive)	–	> 100 µM (inactive)	> 100 µM (inactive)	> 100 µM (inactive)	> 100 µM (inactive)	> 100 µM (inactive)	–	> 100 µM (inactive)	> 100 µM (inactive)	–	–	> 100 µM (inactive)	> 100 µM (inactive)	> 100 µM (inactive)
CCOC(=O)c1c(SC(=O)c2cc(OC)c(OC)c(OC)c2)n(-c2ccccc2)c(=S)n(-c2ccccc2)c1=O	–	> 100 µM (inactive)	> 100 µM (inactive)	–	> 100 µM (inactive)	51.8 µM (inactive)	> 100 µM (inactive)	> 100 µM (inactive)	> 100 µM (inactive)	> 100 µM (inactive)	> 100 µM (inactive)	–	> 100 µM (inactive)	> 100 µM (inactive)	> 100 µM (inactive)	> 100 µM (inactive)	> 100 µM (inactive)	> 100 µM (inactive)	> 100 µM (inactive)	> 100 µM (inactive)
CCOP(=O)(OCC)/C(=C\n1ccc(=O)[nH]c1=S)C(=O)OC	> 100 µM (inactive)	> 100 µM (inactive)	> 100 µM (inactive)	–	> 100 µM (inactive)	> 100 µM (inactive)	> 100 µM (inactive)	–	> 100 µM (inactive)	> 100 µM (inactive)	> 100 µM (inactive)	> 100 µM (inactive)	> 100 µM (inactive)	> 100 µM (inactive)	–	66.2 µM (inactive)	> 100 µM (inactive)	> 100 µM (inactive)	> 100 µM (inactive)	> 100 µM (inactive)
OCC(O)C(O)C(C=NNc1ncnc2ccc(Br)cc12)=NNc1ncnc2ccc(Br)cc12 (stereo unspecified)	1.19 µM (inactive)	3.63 µM (inactive)	–	–	2.25 µM (inactive)	0.378 µM (active)	–	0.339 µM (active)	0.358 µM (active)	1.75 µM (inactive)	2.64 µM (inactive)	0.968 µM (active)	1.34 µM (inactive)	2.14 µM (inactive)	2.24 µM (inactive)	9.62 µM (inactive)	0.378 µM (active)	1.94 µM (inactive)	2.46 µM (inactive)	1.85 µM (inactive)
CN1CCC/C1=N\C#N	> 100 µM (inactive)	> 100 µM (inactive)	> 100 µM (inactive)	–	> 100 µM (inactive)	> 100 µM (inactive)	> 100 µM (inactive)	> 100 µM (inactive)	> 100 µM (inactive)	> 100 µM (inactive)	> 100 µM (inactive)	> 100 µM (inactive)	> 100 µM (inactive)	> 100 µM (inactive)	–	> 100 µM (inactive)	> 100 µM (inactive)	> 100 µM (inactive)	> 100 µM (inactive)	> 100 µM (inactive)
O=C(Nc1cccc([N+](=O)[O-])c1)c1nnn(-c2cccc([N+](=O)[O-])c2)c1O	> 100 µM (inactive)	> 100 µM (inactive)	> 100 µM (inactive)	–	> 100 µM (inactive)	> 100 µM (inactive)	> 100 µM (inactive)	–	> 100 µM (inactive)	> 100 µM (inactive)	> 100 µM (inactive)	> 100 µM (inactive)	> 100 µM (inactive)	> 100 µM (inactive)	–	> 100 µM (inactive)	> 100 µM (inactive)	0.0322 µM (active)	> 100 µM (inactive)	> 100 µM (inactive)
COc1cc([C@@H]2OC[C@@H]3C(c4cc(OC)c5c(c4)OCO5)OC[C@@H]32)cc(OC)c1OC (stereo partly specified)	49.5 µM (inactive)	–	49.1 µM (inactive)	57.9 µM (inactive)	> 100 µM (inactive)	–	31.6 µM (inactive)	> 100 µM (inactive)	> 100 µM (inactive)	> 100 µM (inactive)	> 100 µM (inactive)	26.9 µM (inactive)	> 100 µM (inactive)	–	> 100 µM (inactive)	> 100 µM (inactive)	> 100 µM (inactive)	> 100 µM (inactive)	> 100 µM (inactive)	> 100 µM (inactive)
O=C1O/C(=C\C=C\CO)C=C1/C=C/CO [LISSOCLINOLIDE]	16.4 µM (inactive)	21.3 µM (inactive)	18.9 µM (inactive)	20 µM (inactive)	31.2 µM (inactive)	13.8 µM (inactive)	33.3 µM (inactive)	24.2 µM (inactive)	14 µM (inactive)	40.8 µM (inactive)	–	22.1 µM (inactive)	21 µM (inactive)	19 µM (inactive)	–	–	36.3 µM (inactive)	24.1 µM (inactive)	> 100 µM (inactive)	61.2 µM (inactive)
